Data on 14 molecules can be found in US9926271B2, “Octahydrocyclopentapyrroles, their preparation and use” (The Trustees of Columbia University in the City of New York, priority 2013, dated 2018).

What is called IC50 is the point on the concentration scale where inhibition reaches its midpoint.

For data set [1], the target named is T1, RBP4 (Homo sapiens, UniProt P02753). Nature of the data set: Scintillation proximity RBP4 binding assay (SPA). Also on record: Untagged human RBP4 purified from urine of tubular proteinuria patients; purchased Fitzgerald Industries International; host or cells: urine of tubular proteinuria patients. Conditions: 10 nM 3H-Retinol, 50 nM biotinylated RBP4. The protocol: Scintillation Proximity RBP4 Binding Assay
Untagged human RBP4 purified from urine of tubular proteinuria patients was purchased from Fitzgerald Industries International. It was biotinylated using the EZ-Link Sulfo-NHS-LC-Biotinylation kit from Pierce following the manufacturer's recommendations. Binding experiments were performed in 96-well plates (OptiPlate, PerkinElmer) in a final assay volume of 100 μl per well in SPA buffer (1×PBS, pH 7.4, 1 mM EDTA, 0.1% BSA, 0.5% CHAPS). The reaction mix contained 10 nM ^3H-Retinol (48.7 Ci/mmol; PerkinElmer), 0.3 mg/well Streptavidin-PVT beads, 50 nM biotinylated RBP4 and a test compound. Nonspecific binding was determined in the presence of 20 μM of unlabeled retinol. The reaction mix was assembled in the dark under dim red light. The plates were sealed with clear tape (TopSeal-A: 96-well microplate, PerkinElmer), wrapped in the aluminum foil, and allowed to equilibrate 6 hours at room temperature followed by overnight incubation at +4° C. Radiocounts were measured using a TopCount NXT counter (Packard Instrument Company).
For orientation: SPA uses beads or plates that emit light when radiolabelled molecules are held near them.

Data set [2] concerns the target T2, RBP4-TTR interaction (Homo sapiens, UniProt P02753). Briefly: TR-FRET (HTRF) assay for retinol-induced RBP4-TTR interaction. The settings on record: in the presence of 1 μM retinol; read-out: HTRF assay for antagonists of RBP4-TTR interaction: IC50. Also on record: human RBP4 fragment (amino acids 19-201); host or cells: Gold(DE3)pLysS E. coli strain (Stratagene), pMAL-c4x vector. It counts as biochemical. The text has this: TR-FRET Assay for Retinol-Induced RBP4-TTR Interaction
Binding of a desired RBP4 antagonist displaces retinol and induces hindrance for RBP4-TTR interaction resulting in the decreased FRET signal (FIG. 7). Bacterially expressed MBP-RBP4 and untagged TTR were used in this assay. […] Following cell lysis, recombinant RBP4 was purified from the soluble fraction using the ACTA FPLC system (GE Healthcare) equipped with the 5-ml the MBP Trap HP column. Human untagged TTR was purchased from Calbiochem. Untagged TTR was labeled directly with Eu^3+ Cryptate-NHS using the HTRF Cryptate Labeling kit from CisBio following the manufacturer's recommendations. HTRF assay was performed in white low volume 384 well plates (Greiner-Bio) in a final assay volume of 16 μl per well. The reaction buffer contained 10 mM Tris-HCl pH 7.5, 1 mM DTT, 0.05% NP-40, 0.05% Prionex, 6% glycerol, and 400 mM RE. […] Titration of test compounds in this assay was conducted in the presence of 1 μM retinol. All reactions were assembled in the dark under dim red light and incubated overnight at +4° C. wrapped in aluminum foil. TR-FRET signal was measured in the SpectraMax M5e Multimode Plate Reader (Molecular Device). Fluorescence was excited at 337 nm and two readings per well were taken: Reading 1 for time-gated energy transfer from Eu(K) to d2 (337 nm excitation, 668 nm emission, counting delay 75 microseconds, counting window 100 microseconds) and Reading 2 for Eu(K) time-gated fluorescence (337 nm excitation, 620 nm emission, counting delay 400 microseconds, counting window 400 microseconds). The TR-FRET signal was expressed as the ratio of fluorescence intensity: Flu665/Flu620×10,000.
For orientation: In TR-FRET formats the signal depends on donor and acceptor labels being close together.

Data set [3] addresses T1, RBP4. Conditions: cited from earlier work.
For data set [4], the system named is retinal pigment epithelium cells. Conditions: many cell types, including the retinal pigment epithelium cells; cited from earlier work.
For another data set, the system named is serum RBP4 and retinol. Conditions: in vivo; cited from earlier work.
The test system of a further data set is Abca4−/− mice. Conditions: animal model of excessive bisretinoid accumulation; cited from earlier work.
In another data set the test system is mice. The settings on record: cited from earlier work.
Data set [5] deals with T2, RBP4-TTR interaction. The settings on record: cited from earlier work.

Consider `COc1cc(C(=O)O)nc(N2C[C@H]3C[C@@H](c4ccccc4C(F)(F)F)C[C@H]3C2)n1` [Compound 62, 6-Methoxy-2-((3aR,5r,6aS)-5-(2-(trifluoromethyl)phenyl)hexahydrocyclopenta[c]pyrrol-2(1H)-yl)pyrimidine-4-carboxylic Acid], for which the half-inhibitory concentration (IC50) on RBP4 [1] is 14.3 nM; at RBP4-TTR interaction [2] it was 86.7 nM.
As for `CC(C)c1cc(C(=O)O)nc(N2C[C@H]3C[C@@H](c4ccccc4C(F)(F)F)C[C@H]3C2)n1` [Compound 63, 6-Isopropyl-2-((3aR,5r,6aS)-5-(2-(trifluoromethyl)phenyl)hexahydrocyclopenta[c]pyrrol-2(1H)-yl)pyrimidine-4-carboxylic Acid], the 50% inhibitory concentration (IC50) on RBP4 [1] worked out at 158 nM; on RBP4-TTR interaction [2], 203 nM.
As for `O=C(O)c1ccnc(N2C[C@H]3C[C@@H](c4ccccc4C(F)(F)F)C[C@H]3C2)n1` [Compound 64, 2-((3aR,5r,6aS)-5-(2-(Trifluoromethyl)phenyl)hexahydrocyclopenta[c]pyrrol-2(1H)-yl)pyrimidine-4-carboxylic Acid], the IC50 stood at 27.2 nM at RBP4 [1] and 79.6 nM on RBP4-TTR interaction [2].
Regarding `O=C(O)c1cc(C(F)(F)F)nc(N2C[C@H]3C[C@@H](c4ccccc4C(F)(F)F)C[C@H]3C2)n1` [Compound 65, 6-(Trifluoromethyl)-2-((3aR,5r,6aS)-5-(2-(trifluoromethyl)phenyl)hexahydrocyclopenta[c]pyrrol-2(1H)-yl)pyrimidine-4-carboxylic Acid], the values for the IC50 on RBP4 [1] and at RBP4-TTR interaction [2] were 9.5 nM and 88 nM, respectively.
Take `Cc1cnc(N2C[C@H]3C[C@@H](c4ccccc4C(F)(F)F)C[C@H]3C2)nc1C(=O)O` [Compound 66]: the concentration for half-maximal inhibition (IC50) on RBP4 [1] amounted to 90 nM; at RBP4-TTR interaction [2], 596 nM.
`O=C(O)c1nc(N2C[C@H]3C[C@@H](c4ccccc4C(F)(F)F)C[C@H]3C2)ncc1F` [Compound 67]: the 50% inhibitory concentration (IC50) on RBP4 [1] was determined as 25.9 nM; on RBP4-TTR interaction [2], 276 nM.
As for `O=C(O)c1cnc(N2C[C@H]3C[C@@H](c4ccccc4C(F)(F)F)C[C@H]3C2)nc1` [Compound 68], the IC50 came out at 172 nM at RBP4 [1] and 1860 nM at RBP4-TTR interaction [2].
Turning to `Cc1cc(C(=O)O)nc(N2C[C@H]3C[C@@H](c4ccccc4C(F)(F)F)C[C@H]3C2)c1` [Compound 69, 4-Methyl-6-((3aR,5r,6aS)-5-(2-(trifluoromethyl)phenyl)hexahydrocyclopenta[c]pyrrol-2(1H)-yl)picolinic Acid], the half-maximal inhibitory concentration (IC50) at RBP4 [1] was found to be 14 nM; at RBP4-TTR interaction [2], 295 nM.
As for `Cc1cc(C(=O)O)cc(N2C[C@H]3C[C@@H](c4ccccc4C(F)(F)F)C[C@H]3C2)n1` [Compound 70, 2-Methyl-6-((3aR,5r,6aS)-5-(2-(trifluoromethyl)phenyl)hexahydrocyclopenta[c]pyrrol-2(1H)-yl)isonicotinic Acid], the IC50 on RBP4 [1] came out at 53.2 nM; at RBP4-TTR interaction [2] it was 229 nM.
The matching figures for `O=C(O)c1cccnc1N1C[C@H]2C[C@@H](c3ccccc3C(F)(F)F)C[C@H]2C1` [Compound 71, 2-((3aR,5r,6aS)-5-(2-(Trifluoromethyl)phenyl)hexahydrocyclopenta[c]pyrrol-2(1H)-yl)nicotinic Acid]: 43.8 nM and 382 nM.
With `Cc1cc(C(=O)O)nc(N2C[C@H]3C[C@@H](c4cc(F)ccc4C(F)(F)F)C[C@H]3C2)n1` [Compound 72, 2-((3aR,5r,6aS)-5-(5-Fluoro-2-(trifluoromethyl)phenyl)hexahydrocyclopenta[c]pyrrol-2(1H)-yl)-6-methylpyrimidine-4-carboxylic Acid], the IC50 on RBP4 [1] is 54.3 nM; at RBP4-TTR interaction [2], 49.2 nM.
In turn, `Cc1cc(NC(=O)N2C[C@H]3C[C@@H](c4ccccc4C(F)(F)F)C[C@H]3C2)c(C(=O)O)cn1` [Compound 73, 6-Methyl-4-((3aR,5r,6aS)-5-(2-(trifluoromethyl)phenyl)octahydrocyclopenta[c]pyrrole-2-carboxamido)nicotinic Acid] showed a concentration for half-maximal inhibition (IC50) on RBP4 [1] of 23.9 nM.
For `Cc1nc(N2C[C@H]3C[C@@H](c4ccccc4C(F)(F)F)C[C@H]3C2)nc(C(=O)O)c1C` [Compound 74, 5,6-Dimethyl-2-((3aR,5r,6aS)-5-(2-(trifluoromethyl)phenyl)hexahydrocyclopenta[c]pyrrol-2(1H)-yl)pyrimidine-4-carboxylic Acid], the IC50 at RBP4 [1] was determined as 48.7 nM; at RBP4-TTR interaction [2], 123 nM.
In the case of `CC1=C(/C=C/C(C)=C/C=C/C(C)=C/C(=O)Nc2ccc(O)cc2)C(C)(C)CCC1` [fenretinide, N-(4-hydroxy-phenyl)retinamide], the “binding to RBP4, displacement of all-trans retinol” value at RBP4 [3] was “bind to RBP4”. Besides, the induction of apoptosis result in data set [4] is on record as “extremely active inducer of apoptosis”. Besides, the “serum RBP4 and retinol” value in the data set with serum RBP4 and retinol is “reduce serum RBP4 and retinol”. Besides, the A2E production entry with Abca4−/− mice is listed as “reduced A2E production”. The formation of hemangiosarcomas result in the data set on mice is “stimulate formation of hemangiosarcomas”. Moreover, the RBP4-TTR interaction entry on RBP4-TTR interaction [5] is recorded as “disrupt the RBP4-TTR interaction”.
